According to patent US20230365673A1, “MEANS FOR REDUCING RADIO- AND CHEMOTHERAPY RESISTANCE AND ADVERSE EFFECTS” (JOHANN WOLFGANG GOETHE-UNIVERSITÄT FRANKFURT AM MAIN, priority 2020, published 2023):

How the values were obtained:
[1] = system: primary mouse colon fibroblasts; assay: Inflammatory gene expression (RT-qPCR/RNAseq) in fibroblasts treated with APTKA conditioned medium; format: cell-based
Description: (A) Schematic illustration of APTKA or APTK organoids supernatant collection and treatment of primary mouse colon fibroblasts of unchallenged wildtype C57BL/6 mice. […] (F) Relative expression analysis by RT-qPCR of inflammatory genes in untreated wildtype and APTKA conditioned medium treated fibroblasts in the presence of IKKß inhibitor ML120B (30 μM) and p38 MAPK inhibitor SB203580 (10 μM) for 24 h (n=4 independent wells per group). Data are mean±SD. p<0.05 by one-way ANOVA followed by Tukey's multiple comparisons test. Representative results from one experiment which has been independently repeated 3 times. (G and H) RNA sequencing analysis of APTKA (n=3) and APTK (n=3) organoids: (G) heat map analysis; (H) differentially expressed cytokines in APTKA (Log 2 fold change≤−1) compared to APTK organoids (log 2 fold Change≥1). p-value<0.05. (I) RT-qPCR analysis of inflammatory genes in APTKA conditioned fibroblasts treated with control IgG, α-IL-1α, α-IL-33, α-TNF-α, α-BAFF or α-CXCL16 neutralizing antibodies (2 μg/mL each) for 24 h (n=4 independent wells per group). Data are mean±SD. **** p<0.0001 by one-way ANOVA followed by Tukey's multiple comparisons test. Experiment performed twice. (J) RNA expression profiles of inflammatory genes in APTKA conditioned fibroblasts stimulated for 24 h then subjected to anakinra (10 μg/mL), APTKA fresh or regular medium treatments for another 24 h (n=4 independent wells per condition). Data are mean±SD; p<0.05 by one-way ANOVA followed by Tukey's multiple comparisons test. Representative results from one experiment which has been independently repeated 2 times.
To examine whether APTK and APTKA tumour organoids differentially affect surrounding fibroblasts in tumours directly in a paracrine manner, supernatants were collected from both tumour organoid lines and treated primary intestinal fibroblasts of unchallenged wildtype mice for 24 hours with the two different tumour-conditioned media ex vivo (FIG. 3A). RNAseq analysis confirmed distinct gene expression patterns in fibroblasts exposed to the two organoid supernatants (FIG. 3B).
The inventors then aimed to identify the upstream factors secreted by APTKA organoids that were responsible for activating NF-κB and p38 in fibroblasts. To this end RNAseq analysis of APTK and APTKA tumour organoids were performed and identified several differentially expressed genes encoding cytokines (FIG. 3G, H). Using neutralizing antibodies, NF-κB and p38 inducing cytokines TNFα, IL-1α, IL-33, BAFF or CXCL16 were blocked in APTKA supernatants and expression of Cxcl1, Cxcl2, Cxcl5 and Ilia as inflammatory marker genes in fibroblasts was examined.
To do so, fibroblasts were stimulated for 24 hours with APTKA conditioned medium before adding anakinra, adding fresh APTKA medium or changing medium to regular medium.

[2] = system: APTKA conditioned fibroblasts; assay: Fibroblast morphology after fractionated irradiation (3×2 Gy); format: cell-based, mouse
Description: (A) Schematic illustration of APTKA organoids supernatant collection and treatment of colon fibroblasts from unchallenged wildtype C57BL/6 mice for 12 h followed by 3×2 Gy irradiation. Microscopic, proteomic & transcriptomic analysis were performed 72 h post first irradiation. (B) Microscopic captures of non-irradiated wildtype (WT) and APTKA conditioned fibroblasts. Remaining captures belong to irradiated fibroblasts: WT, IL-1α (1 μg/mL) stimulated WT, and APTKA conditioned media minus or plus anakinra (20 μg/mL) treated fibroblasts. Scale bars=200 μm. (C) Mass spectrometric analysis of matrisome profiles of 3×2 Gy irradiated (n=8) and non-irradiated (n=8) APTKA conditioned fibroblasts. […] (G) Immunoblot analysis of untreated and irradiated APTKA conditioned fibroblasts. Representative results from one experiment which has been independently repeated 2 times. (H) SA-ß gal staining of untreated and irradiated APTKA fibroblasts. Scale bars=100 μm. (I and J) p21 and pH2AX immunofluorescent staining of untreated and irradiated APTKA fibroblasts. Scale bars=[…]. Data are mean±SD. ** […] and *** p<0.001 by t-test. (K) Nitrite concentration determined by Griess assay in conditioned media from WT, APTK media, APTKA media, IL-1α (1 μg/mL) stimulated and APTKA plus anakinra (20 μg/mL) treated fibroblasts for 72 h (n=10 independent wells per group). […]

| Substance | transcriptomic profile induced in fibroblasts ([1]; recombinant IL-1α alone, compared with APTKA supernatant, data not shown) | fibroblast morphology after irradiation ([2]; recombinant IL-1α 1 μg/mL alone) | expression of Cxcl1, Cxcl5 and Mmp13 in already polarized fibroblasts ([1]; 24 h APTKA conditioned medium, then anakinra 10 μg/mL for another 24 h) | upregulation of pro-inflammatory genes in fibroblasts ([1]; APTKA conditioned medium plus anakinra, data not shown) | APTKA-induced elongated, spindle like morphology after irradiation ([2]; wildtype fibroblasts, APTKA conditioned medium plus anakinra 20 μg/mL) |
| --- | --- | --- | --- | --- | --- |
| recombinant IL-1α: recombinant cytokine used to stimulate fibroblasts | sufficed to induce a similar transcriptomic profile as APTKA supernatant | sufficient to cause a comparable morphology after irradiation |  |  |  |
| anakinra: Kineret®, an interleukin-1 receptor antagonist |  |  | completely reverted expression of these genes | prevented upregulation of pro-inflammatory genes | prevented the APTKA-induced phenotype |
